Source: US9686994B2, “Use of ALS inhibitor herbicides for control of unwanted vegetation in ALS inhibitor herbicide tolerant beta vulgaris plants” (BAYER CROPSCIENCE AG, priority 2012, dated 2017)
Entries after “also recorded” stand apart in the source; their conditions may differ.

What was measured:
[1] = test system: mutated sugar beet plants comprising SEQ.ID.NO:3 and SEQ.ID.NO:5 (on two different alleles), Line A; assay: Greenhouse trial: ALS inhibitor treatment of sugar beets in direct comparison, Line A; type: in vivo, Beta vulgaris L. ssp. vulgaris; conditions: day 14 after application at BBCH 14; scale 0% no damage to 100% completely killed; g/ha: foramsulfuron 13, iodosulfuron-methyl-Na 3.5, amidosulfuron 15, thiencarbazone-methyl 7.5, Bisbyribac-Na 50, metosulam 15
Experimental: (§1) Mutated sugar beet plants comprising SEQ.ID.NO:3 and SEQ.ID.NO:5 (on two different alleles) for use in the context of the present invention (as described in Example 4 above, “Line A”) were treated with different ALS inhibitors in direct comparison with sugar beet plants where the tryptophan at position 569 of the encoded ALS enzyme is substituted by a leucine (“Line B”), with sugar beet plants described in WO 98/02527 where the proline at position 188 of the encoded ALS enzyme is substituted by a serine (“Line C”), and a traditional variety (wild-type) sugar beet plant not having a mutation at positions 569 and 188 (“Line WT”).
(§2) Several groups of seeds of the four different mentioned sugar beet plants were sown separately in the greenhouse and grew up to stage BBCH 14 for Beta vulgaris L. ssp. vulgaris (i.e. 4 leaves (the second pair) unfolded) according to the BBCH monograph “Growth stages of mono- and dicotyledonous plants”, 2nd edition, 2001, ed. Uwe Meier, Federal Biological Research Centre for Agriculture and Forestry (Biologische Bundesanstalt für Land and Forstwirtschaft). Subsequently, the resulting separate groups of sugar beet plants were each individually treated with an ALS inhibitor (ALS-in) in the amounts (g/ha) indicated in Table 1.
(§3) On day 14 after application of the respective ALS inhibitor, the damage (i.e. the phytotoxicity) for each group of sugar beet plants was rated on a stratified scale from 0% (i.e. no damage, no phytotoxicity) to 100% (i.e. the plants were completely killed).

[2] = test system: sugar beet plants where the tryptophan at position 569 of the encoded ALS enzyme is substituted by a leucine, Line B; assay: Greenhouse trial: ALS inhibitor treatment of sugar beets in direct comparison, Line B; type: in vivo, Beta vulgaris L. ssp. vulgaris; conditions: day 14 after application at BBCH 14; scale 0% no damage to 100% completely killed; g/ha: foramsulfuron 13, iodosulfuron-methyl-Na 3.5, amidosulfuron 15, thiencarbazone-methyl 7.5, Bisbyribac-Na 50, metosulam 15
Experimental: as §1, §2, §3

[3] = test system: sugar beet plants where the proline at position 188 of the encoded ALS enzyme is substituted by a serine, Line C; assay: Greenhouse trial: ALS inhibitor treatment of sugar beets in direct comparison, Line C; type: in vivo, Beta vulgaris L. ssp. vulgaris; conditions: day 14 after application at BBCH 14; scale 0% no damage to 100% completely killed; g/ha: foramsulfuron 13, iodosulfuron-methyl-Na 3.5, amidosulfuron 15, thiencarbazone-methyl 7.5, Bisbyribac-Na 50, metosulam 15
Experimental: as §1, §2, §3

[4] = test system: traditional variety (wild-type) sugar beet plant not having a mutation at positions 569 and 188, Line WT; assay: Greenhouse trial: ALS inhibitor treatment of sugar beets in direct comparison, Line WT; type: in vivo, Beta vulgaris L. ssp. vulgaris; conditions: day 14 after application at BBCH 14; scale 0% no damage to 100% completely killed; g/ha: foramsulfuron 13, iodosulfuron-methyl-Na 3.5, amidosulfuron 15, thiencarbazone-methyl 7.5, Bisbyribac-Na 50, metosulam 15
Experimental: as §1, §2, §3

[5] = test system: regenerated sugar beet plants having the mutated SEQ.ID.NO:3 (heterozygote for this mutation); assay: Example 3: ALS inhibitor treatment of sugar beets, heterozygote mutant; type: in vivo; conditions: for resistance of the (heterozygote) mutated plants to the herbicide: foramsulfuron 12.5 g/ha, amidosulfuron 15 g/ha, iodosulfuron 3.5 g/ha, thiencarbazone-methyl 7.5 g/ha, up to 3 applications
Excerpt: (§4) The behaviour of regenerated sugar beet plants having the mutated SEQ.ID.NO:3 (heterozygote for this mutation) and a wild-type sugar beet commercial variety was compared.

[6] = test system: wild-type sugar beet commercial variety; assay: Example 3: ALS inhibitor treatment of sugar beets, wild type; type: in vivo; conditions: foramsulfuron 12.5 g/ha, amidosulfuron 15 g/ha, iodosulfuron 3.5 g/ha, thiencarbazone-methyl 7.5 g/ha; with or without rapeseed oil methyl ester
Excerpt: as §4

[7] = test system: dual mutant sugar beet plant comprising SEQ.ID.NO:3 and SEQ.ID.NO:5 (NCIMB 42050); assay: Example 4: ALS inhibitor treatment of sugar beets having further mutations in the ALS gene; type: in vivo; conditions: compared with the single mutant (position 569); even when put in composition with organic compounds
Excerpt: Subsequently, a mutated sugar beet plant was developed comprising SEQ.ID.NO:3 and SEQ.ID.NO:5 (on two different alleles). Such resulting dual mutant has been deposited under the Budapest Treaty under NCIMB 42050. A plant comprising both SEQ.ID.NO:3 and SEQ.ID.NO:5 can be generated by relying on several techniques, including, for instance, a subsequent mutagenesis step applied to the single mutant NCIMB 42051.
Then the resistance of this dual mutant plant (a mutation in one allele at amino acid 569 and a mutation in the other allele at amino acid 188) was compared with the single mutant (a mutation at position 569) sugar beet.

Row | Structure (SMILES) | damage (phytotoxicity), average rating, Line A [1] | damage (phytotoxicity), average rating, Line B [2] | damage (phytotoxicity), average rating, Line C [3] | damage (phytotoxicity), average rating, Line WT [4] | resistance of the (heterozygote) mutated plants to the herbicide [5] | sensitivity of the wild-type plant to the herbicide [6] | resistance of the dual mutant plant to the herbicide [7] | resistance of the (heterozygote) mutated plants, herbicide applied together with the organic compound ([5]; iodosulfuron 3.5 g/ha with 25 g/ha rapeseed oil methyl ester)
1 | COc1cc(OC)nc(NC(=O)NS(=O)(=O)N(C)S(C)(=O)=O)n1 [Amidosulfuron, amidosulfuron] | 6.3% | 37.5% | 51.9% | 73.1% | same level of resistance | very sensitive | good resistance | 
2 | COC(=O)c1csc(C)c1S(=O)(=O)NC(=O)n1nc(OC)n(C)c1=O [Thiencarbazone-methyl, thiencarbazone-methyl] | 8.1% | 35.6% | 37.5% | 84.4% | about the same level of resistance as for iodosulfuron | very sensitive | good resistance | 
3 | COC(=O)c1ccc(I)cc1S(=O)(=O)[N-]C(=O)Nc1nc(C)nc(OC)n1.[Na+] [Iodosulfuron-methyl-Na, iodosulfuron-methyl-sodium] | 22.5% | 38.8% | 80.0% | 82.5% |  |  |  | 
4 | COc1nc(C)nc(NC(=O)NS(=O)(=O)c2cc(I)ccc2C(=O)O)n1 [iodosulfuron] |  |  |  |  | good level of resistance | very sensitive |  | resistance declined
5 | COc1cc(OC)nc(NC(=O)NS(=O)(=O)c2cc(NC=O)ccc2C(=O)N(C)C)n1 [Foramsulfuron, foramsulfuron] | 26.9% | 45.6% | 77.5% | 80.0% | good resistance; also recorded: best resistance | very sensitive |  | 
6 | COc1cc(OC)n2nc(S(=O)(=O)Nc3c(Cl)ccc(C)c3Cl)nc2n1 [Metosulam, metosulam] | 13.1% | 40.6% | 69.4% | 79.4% |  |  |  | 
7 | COc1cc(OC)nc(Oc2cccc(Oc3nc(OC)cc(OC)n3)c2C(=O)O)n1 [Bisbyribac-Na, bispyribac-sodium] | 17.5% | 38.1% | 71.7% | 80.0% |  |  |  | 
